How the values were obtained:
Test in all cases: relative viability (nuclei count vs DMSO), 5 days (fraction); higher = more cells survive
[1] = compound: CN1C=C(C2=CC=CC=C21)/C=C\3/C4=C(C=CC=N4)NC3=O + C[C@]1(O)C[C@@H](c2nc(-c3ccc4ccc(-c5ccccc5)nc4c3)c3c(N)nccn32)C1 [Linsitinib] (partner 1 µM)
How it was run: (§1)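 Lung cancer cell lines were seeded in 1536-well plates and dosed by pin tool the next day, with either a single drug or a fixed anchor-drug dose combined with five library-drug doses (not always all listed) spaced in √10 steps. Five days later, one step fixed the cells and stained their nuclei (final 0.05% Triton X-100, 1% formaldehyde, 1 ug/ml Hoechst), and nuclei were counted on 4× images. Relative viability is the nuclei count in treated wells divided by the count in vehicle wells, and each value is the median of duplicate plates.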

[2] = compound: CC(=O)Nc1cccc(-n2c(=O)n(C3CC3)c(=O)c3c(Nc4ccc(I)cc4F)n(C)c(=O)c(C)c32)c1 [Trametinib] + COc1cccc2cc(-c3nc([C@H]4CC[C@H](C(=O)O)CC4)n4ncnc(N)c34)[nH]c12 [OSI-027] (partner 0.5 µM)
How it was run: as §1

[3] = compound: CC(=O)Nc1cccc(-n2c(=O)n(C3CC3)c(=O)c3c(Nc4ccc(I)cc4F)n(C)c(=O)c(C)c32)c1 [Trametinib] + CCNC(=O)c1noc(-c2cc(C(C)C)c(O)cc2O)c1-c1ccc(CN2CCOCC2)cc1 [Luminespib] (partner 0.01 µM)
How it was run: as §1

[4] = compound: CN1C=C(C2=CC=CC=C21)/C=C\3/C4=C(C=CC=N4)NC3=O + Nc1ncn([C@H]2C[C@H](O)[C@@H](CO)O2)c(=O)n1 [Decitabine] (partner 2 µM)
How it was run: as §1

Row | Cell Line | relative viability ([1]; first compound 0.02 µM) | relative viability ([1]; first compound 0.06325 µM) | relative viability ([1]; first compound 0.6325 µM) | relative viability ([1]; first compound 2 µM) | relative viability ([2]; first compound 0.0025 µM) | relative viability ([2]; first compound 0.007906 µM) | relative viability ([2]; first compound 0.025 µM) | relative viability ([2]; first compound 0.07906 µM) | relative viability ([2]; first compound 0.25 µM) | relative viability ([3]; first compound 0.0025 µM) | relative viability ([3]; first compound 0.007906 µM) | relative viability ([3]; first compound 0.025 µM) | relative viability ([3]; first compound 0.07906 µM) | relative viability ([3]; first compound 0.25 µM) | relative viability ([4]; first compound 0.02 µM) | relative viability ([4]; first compound 0.06325 µM) | relative viability ([4]; first compound 0.2 µM) | relative viability ([4]; first compound 0.6325 µM) | relative viability ([4]; first compound 2 µM) | relative viability ([1]; first compound 0.2 µM)
1 | NCI-H1395 | 0.977 | 1.11 | 1.15 | 0.945 | 0.693 | 0.617 | 0.552 | 0.468 | 0.404 | 0.616 | 0.703 | 0.691 | 0.775 | 0.403 | 0.642 | 0.702 | 0.686 | 0.699 | 0.688 | 
2 | NCI-H23 | 0.614 | 0.648 | 0.655 | 0.631 | 0.588 | 0.429 | 0.268 | 0.374 | 0.158 | 0.234 | 0.185 | 0.17 | 0.213 | 0.221 | 0.321 | 0.295 | 0.306 | 0.336 | 0.347 | 
3 | LOU-NH91 | 0.858 | 0.889 | 0.928 | 0.927 | 0.735 | 0.654 | 0.568 | 0.53 | 0.478 | 0.348 | 0.365 | 0.278 | 0.305 | 0.279 | 0.77 | 0.799 | 0.771 | 0.713 | 0.788 | 0.851
4 | NCI-H2009 | 1.24 | 1.11 | 1.23 | 1.25 | 0.505 | 0.405 | 0.229 | 0.226 | 0.247 | 1.03 | 0.623 | 0.406 | 0.26 | 0.315 | 0.303 | 0.355 | 0.352 | 0.382 | 0.417 | 1.23
5 | NCI-H358 | 0.632 | 0.643 | 0.795 | 0.686 | 0.393 | 0.341 | 0.19 | 0.174 | 0.14 | 0.264 | 0.18 | 0.132 | 0.107 | 0.11 | 0.233 | 0.186 | 0.195 | 0.204 | 0.246 | 0.881
6 | NCI-H2126 | 0.739 | 0.751 | 0.745 | 0.65 | 0.671 | 0.506 | 0.375 | 0.535 | 0.488 | 0.871 | 0.754 | 0.509 | 0.731 | 0.564 | 0.631 | 0.585 | 0.569 | 0.536 | 0.508 | 0.727
7 | NCI-H1437 | 1.06 | 1.12 | 1.18 | 1.2 | 0.565 | 0.518 | 0.262 | 0.3 | 0.295 | 1.12 | 0.923 | 0.709 | 0.627 | 0.602 | 0.593 | 0.591 | 0.527 | 0.664 | 0.668 | 1.25
8 | SK-LU-1 | 0.838 | 0.894 | 1.09 | 1.14 | 0.319 | 0.313 | 0.217 | 0.198 | 0.188 | 0.216 | 0.187 | 0.176 | 0.17 | 0.159 | 0.484 | 0.499 | 0.578 | 0.617 | 0.6 | 1.15
9 | NCI-H838 | 0.662 | 0.866 | 0.904 | 0.986 | 0.301 | 0.298 | 0.227 | 0.281 | 0.236 | 0.289 | 0.291 | 0.247 | 0.204 | 0.208 | 0.431 | 0.447 | 0.446 | 0.433 | 0.449 | 0.944
10 | NCI-H1755 | 0.95 | 1.01 | 0.968 | 0.991 | 0.668 | 0.673 | 0.559 | 0.707 | 0.664 | 0.412 | 0.333 | 0.598 | 0.462 | 0.301 | 0.668 | 0.758 | 0.674 | 0.675 | 0.691 | 0.967
11 | NCI-H1915 | 1.07 | 1.1 | 1.12 | 1.06 | 0.538 | 0.314 | 0.293 | 0.21 | 0.159 | 0.823 | 0.55 | 0.297 | 0.204 | 0.123 | 0.242 | 0.258 | 0.287 | 0.573 | 0.53 | 1.08
12 | NCI-H2347 | 0.998 | 0.963 | 0.986 | 0.959 | 0.394 | 0.216 | 0.185 | 0.226 | 0.167 | 0.513 | 0.254 | 0.205 | 0.208 | 0.303 | 0.563 | 0.552 | 0.588 | 0.582 | 0.608 | 0.944
13 | HARA | 0.93 | 0.92 | 0.932 | 1.06 | 0.575 | 0.359 | 0.23 | 0.328 | 0.0752 | 0.75 | 0.534 | 0.694 | 0.234 | 0.13 | 0.373 | 0.477 |  | 0.597 | 0.524 | 1.03
14 | NCI-H2085 | 0.867 | 0.825 | 0.866 | 1.02 | 0.469 | 0.352 | 0.281 | 0.329 | 0.298 | 0.415 | 0.325 | 0.263 | 0.288 | 0.329 | 0.523 | 0.494 | 0.559 | 0.491 | 0.525 | 0.867
15 | NCI-H650 | 0.91 | 0.955 | 0.677 | 0.807 | 0.645 | 0.765 | 0.619 | 0.714 | 0.567 | 0.862 | 0.828 | 0.659 | 0.578 | 0.375 | 0.316 | 0.338 |  | 0.293 | 0.188 | 
16 | NCI-H727 | 0.285 | 0.204 | 0.323 | 0.263 | 0.426 | 0.39 | 0.266 | 0.274 | 0.317 | 0.297 | 0.314 | 0.291 | 0.244 | 0.225 | 0.935 | 0.886 | 0.669 | 0.979 | 0.829 | 0.282

Reference: the supplement of paper PMC10307832
